# Reference: patent US20220347294A1, “COMPOSITIONS AND METHODS FOR INCREASING THE EFFICACY OF IMMUNOTHERAPIES AND VACCINES” (The Regents of the University of Michigan, priority 2019, published 2022)
# Key:
# [1] = Fiber gel formation: inulin gel with added natural fibers or excipients; format: physicochemical; conditions: heated at 70° C. for 5 minutes, cooled overnight
# Excerpt: FIG. 24: Inulin gel was formed after adding various amounts of natural fibers or excipients. The values shown are the maximum amount of each ingredient that could be added to 23% w/w inulin gel without disrupting the gel formation.
# Experiments were next conducted involving the formation of new fiber gels by combining inulin with other natural dietary fibers or pharmaceutical excipients. Briefly, inulin gels were manufactured by first mixing 23% w/w inulin together with other excipients, including resistant potato starch, pectin, guar gum, bean gum, gelatin, or glycerol. Other natural fibers would provide additional nutrient source for commensal microbiome, while other excipients served as thickening reagents in these formulations. The mixtures were then heated at 70° C. for 5 minutes, followed by cooling at room temperature overnight. During the manufacturing processes, both pre-dissolving and dry-blending were used in order to add the excipients, based on individual dissolutions in water. […] The ingredients were first mixed in water (top panel), heated at 70° C. for 5 minutes (middle panel), followed by cooling at room temperature overnight, leading to the formation of fiber gels (bottom panel) (FIG. 23).
# Experiments were next conducted that varied the amount of natural fibers and excipients added to inulin gel and determined the ideal composition for forming fiber gels. […] The indicated values are the maximum amount of each ingredient that could be added to 23% w/w inulin gel without disrupting gel formation.
# [2] = system: AH1-specific CD8+ T cells; test: Tetramer analysis of AH1-specific CD8+ T cells in PBMCs; format: in vivo, BALB/c mice; conditions: for frequencies of AH1-specific CD8+ T cells among PBMCs, fold greater than α-PD-1 treatment alone: prophylactic oral gavage combined with α-PD-1 IgG, peripheral blood day 22
# Excerpt: The effect of these materials were next tested on systemic immune responses. The surrogate marker of tumor specific antigen, MHC-I minimal epitope of CT-26 gp70 (AH1) (H-2L^d-restricted SPSYVYHQF (SEQ ID NO.: 1)), was employed to quantitate the frequency of AH1-specific CD8^+ T cells among peripheral blood mononuclear cells (PBMCs). Mice orally gavaged with inulin and melatonin combined with α-PD-1 IgG induced 1.7-fold and 1.8-fold greater frequencies of AH1-specific CD8^+ T cells, compared with α-PD-1 treatment alone (FIGS. 1E and F).
# Peripheral blood mononuclear cells (PBMCs) were collected at preset times to analyze tumor antigen-specific CD8^+ T cells in the systemic circulation. Red blood cells were lysed, and the remaining cells were blocked with anti-CD16/32 antibody for 10 min and stained with peptide-MHC tetramer, including H-2L^d-restricted SPSYVYHQF (SEQ ID NO.: 1) or H-2D^b-restricted ASMTNMELM (SEQ ID NO.: 3). Both the tetramers were provided by NIH Tetramer Core Facility. Cells were also stained anti-CD8-APC (BD Biosciences, #553035) and DAPI for flow cytometric analysis.
# CT26 tumor = test: Tumor microenvironment analysis (tumor-infiltrating cells, flow cytometry); format: in vivo, BALB/c mice; conditions: combined with α-PD-1 IgG, day 24
# Protocol: After treatment with various samples, tumor tissues were excised at preset time points for analysis of tumor-infiltrating T cells. Tumor tissues were excised, cut into small pieces, and incubated with collagenase type IV (1 mg/ml) and of DNase I (0.1 mg/ml) with gentle shaking. After 30 min, cell suspension was filtered through a 70-μm strainer. Cells were washed with FACS buffer and blocked with anti-CD16/32 antibody. Cells were then stained with various antibodies (CD4 Monoclonal Antibody (GK1.5)-PE (eBioscience), APC-Anti-CD45 Rat Monoclonal Antibody (clone: 30-F11), FITC-Anti-CD45 Rat Monoclonal Antibody (clone: 30-F11), FITC-Rat Anti-Mouse CD8a Clone 53-6.7 (BD Biosciences), PE labeled H-2L-restricted SPSYVYHQF (SEQ ID NO.: 1), FITC-Anti-CD86 Rat Monoclonal Antibody (clone: GL-1, BioLegend), PE-CD11c Armenian Hamster anti Mouse (Clone: N418, eBioscience), PE-Cy7-Anti-mouse PD-1 (clone: 29F.1A12, BioLegend), FITC-CD44 Rat anti-Human/Mouse (clone: IM7, eBioscience), PE-Cy7-CD62L Monoclonal Antibody (MEL-14) (eBioscience), PE-Tcf1/Tcf7 (C63D9) Rabbit mAb (Cell Signaling Technology, #14456), PE-Cy7-Anti-mouse CD86 (Clone: GL1, BD Bioscience), FITC anti-mouse/human CD11b (M1/70, BioLegend), PE-anti-mouse F4/80 (BM8, BioLegend), or APC anti-mouse CD206 (MMR, BioLegend)). The cells were washed and stained with DAPI, or 7-AAD, or efluor 450 for flow cytometric analysis.
# CT26 cells [3] = test: Therapeutic oral gavage plus α-PD-1 in the CT26 tumor model; format: in vivo, BALB/c mice; conditions: for combination efficacy with α-PD-1 against tumor growth after reducing the dosage by half: 60 mg for inulin, 50 mg/Kg for melatonin
# Protocol: (A) 1.5×10^5 CT26 cells were inoculated in BALB/c mice subcutaneously (sc) on day 0. Mice were gavaged from day 7 (5 times per week). On days 11, 15, 19 and 23, α-PD-1 was injected intraperitoneally (ip) at 100 μg per dose. (B) The average tumor growth curves for mice gavaged with various compounds. Data represent mean±SEM. (C) Individual tumor growth curves and (D) survival rate curves of various groups. […] All the data are from 2-3 independent experiments; n=10 (B, C, D), n=7-10 (E, F) *p<0.05, **p<0.01, analysed by two-way ANOVA (B), one-way ANOVA (E, F) or log-rank (Mantel-Cox) test.
# (B) The average tumor growth curves and individual tumor growth curve for mice gavaged with inulin or inulin gel (60 mg/dosage). 1.5×10^5 CT26 cells were inoculated in BALB/c mice subcutaneously. Gavage started from day 7 (5 times per week) and 100 μg of α-PD-1 was ip injected on days 11, 15, 19, 23 and 27. (C) The survival rate curves of various groups. […] PBS was used as a control. […] Shown are the average and individual tumor growth curves for tumor-bearing mice. IgG antibody was used as a control group. Data represent mean SEM. All the data are from 2-3 independent experiments; n=10 (B, C), n=5 (D, I), n=10-15 (E), n=4-7 (G, F), *p<0.05, **p<0.01, ***p<0.001, analysed by one-way ANOVA (E, F), two-way ANOVA (B, I), or log-rank (Mantel-Cox) test (C).
# Female C57BL/6 or BALB/c mice of 6-8-week old were obtained from Jackson Laboratory. BALB/c mice were inoculated with 1.5×10^5 CT26 cells per mouse, while C57BL/6 mice were inoculated with 1.2×10^6 MC38 cells per mouse on the right flank by subcutaneous injection on day 0. Tumor-bearing mice were randomly assigned to different groups on day 5. For prophylactic antitumor study, mice were received oral gavage with melatonin (100 mg/Kg bodyweight/dosage), EGCG (100 mg/Kg bodyweight/dosage), fucoidan (200 mg/Kg bodyweight/dosage), oligofructose (120 mg/dosage), or inulin (120 mg/dosage) three times for one week prior to tumor inoculation. After tumor inoculation, mice received oral gavage three times in the first week, followed by five times per week. Mice were injected i.p. with α-PD-1 antibody (100 μg/dosage) on days 10, 14, 18 and 22 post tumor inoculation. For the therapeutic therapy, mice were inoculated with tumor cells on day 0 as indicated above and treated with the indicated samples by oral gavage starting day 7 post tumor inoculation.
# [4] = SCFAs measurement in fecal pellets; format: in vivo, mice; conditions: oral gavage of inulin
# Protocol: Fresh fecal pellets of mice were collected and weighted on day 20 post tumor inoculation and treatments. Fecal pellets were homogenized in DI water and centrifuged at 3000×g for 5 min. The pH of the supernatant was detected by pH meter. For SCFAs measurement, SCFAs were extracted from the fecal pellets using Milli-Q water. The solution was centrifuged for 5 min at 10000×g (4° C.) to pellet bacteria and other solids. The supernatant was collected, and SCFAs were measured via ion chromatography in University of Michigan Biological Station. The concentration of SCFAs was determined using an external standard method.
# gut microbiota = test: Gut microbiome analysis by 16S rRNA sequencing of fecal pellets; format: in vivo, BALB/c mice
# Protocol: FIG. 4A-H: Responses of the diversity, richness, and structure of the gut microbiota. 1.5×10^5 CT26 cells were inoculated in BALB/c mice subcutaneously and gavaged from day 7 (5 times per week). α-PD-1 (100 μg per dose) was ip injected on days 11, 15, 19 and 23. The fecal pellets were collected on day 21 for 16s RNA analysis. (A) OTU number, (B) inverse Simposon diversity and (C) nonmetric multidimensional scaling (NMDS) score plot (based on Bray-Curtis) of gut microbiota in various groups. (D) Relative abundances of the gut microbiota at family level and […] genus level. (F) The relative abundances of lactobacillus, akkermansia, roseburia and Ruminococcus_1 in various groups. (G) The relationship of between the tumor sizes and the relative abundances of lactobacillus, akkermansia, roseburia and Ruminococcus_1. (H) The heatmap of SCFAs (lactate, propionate and butyrate) levels of various groups in fecal pellets. Data represent mean±SEM. *p<0.05, **p<0.01, ****p<0.0001, analysed by one-way ANOVA (A, B, F).
# Tumor-bearing mice received treatments as indicated above. […] Pooled amplicon library was then sequenced on the Illumina MiSeq platform using the 500 cycle MiSeq V2 Reagent kit (catalog no. MS-102-2003) according to the manufacturer's instructions with modifications of the primer set with custom read 1/read 2 and index primers added to the reagent cartridge. […]
# CT26 cells [5] = test: Prophylactic oral gavage plus α-PD-1 in the CT26 tumor model; format: in vivo, BALB/c mice
# Protocol: FIG. 1A-F: In vivo screening of the candidate materials to prophylactically improve the anti-tumor efficacy of α-PD-1. (A) Mice were prophylactically gavaged various samples on day −7 for three times. Then 1.5×10^5 CT26 cells were inoculated in BALB/c mice subcutaneously (s.c.) on day 0. Mice were gavaged three times again in the first week post tumor inoculation and 5 times per week from day 7. α-PD-1 was i.p. injected on days 10, 14, 18 and 24 at 100 μg/dose. (B) Individual tumor growth curves and (C) average tumor growth curves for mice gavaged with various compounds. (D) Survival rate curves of various groups. (E) The average frequency of AH1-specific CD8^+ T cells in peripheral blood on day 22. (F) The representative scatter plots were measured via flow cytometry. Data represent mean±SEM. *p<0.05, **p<0.01, analyzed by two-way ANOVA (B), or t-test (E), log-rank (Mantel-Cox) test (D).
# Among the FDA's list, five candidate materials were selected for the initial screening. Melatonin, found in pineal gland and gastrointestinal tracta, regulates sleep cycle and circadian rhythm. Epigallocatechin gallate (EGCG) is a natural antioxidant in plants. […]
# Mice were cared for under the guidelines from federal, state and local. […] Tumor size was measured at preset time, and tumor volume was calculated as length×width^2. […]
# [6] = Potato starch gel formation; format: physicochemical; conditions: in water, gentle stirring at 70° C., when the swelling was completed
# Protocol: FIG. 22: Food grade potato starch was pre-hydrated at concentrations of 0.1, 0.5, 2.5, and 5% w/v in water, followed by gentle stirring at 70° C. After cooling, gel formation was examined.
# Experiments were next conducted that examined gel formation using potato starch, another prebiotic natural fiber. The impact of potato starch concentration on gel formation was examined. Food grade potato starch (Bob's Red Mill) was pre-hydrated at desired concentrations of 0.1, 0.5, 2.5, and 5% w/v in water, followed by gentle stirring at 70° C. […] Potato starch was instantly gelatinized at concentrations above 5% w/v when the swelling was completed.
compound,measurement,setting,value
OCC(O)CO [glycerol],maximum amount of ingredient that could be added to 23% w/w inulin gel without disrupting gel formation,[1],50 % (w/w)
"COc1ccc2[nH]cc(CCNC(C)=O)c2c1 [melatonin, reference compound]","frequencies of AH1-specific CD8+ T cells among PBMCs, fold greater than α-PD-1 treatment alone",[2],1.8 fold
same,intratumoral infiltration of T cells compared with α-PD-1 IgG alone,CT26 tumor,significantly enhanced
same,combination efficacy with α-PD-1 against tumor growth after reducing the dosage by half,CT26 cells [3],did not compromise
gelatin,maximum amount of ingredient that could be added to 23% w/w inulin gel without disrupting gel formation,[1],5.0 % (w/w)
guar gum,maximum amount of ingredient that could be added to 23% w/w inulin gel without disrupting gel formation,[1],0.5 % (w/w)
inulin,"concentration of lactate, propionate and butyrate in fecal pellets",[4],increased
same,abundance of Roseburia in the gut,gut microbiota; oral gavage with α-PD-1,increased
same,"relative abundance of Akkermansia, Lactobacillus, Ruminococcus, and Butyricicoccus","gut microbiota; oral inulin followed by α-PD-1, compared with α-PD-1 alone or PBS group",increased
same,"frequencies of AH1-specific CD8+ T cells among PBMCs, fold greater than α-PD-1 treatment alone",[2],1.7 fold
same,AH1-specific CD8+ T cells among PBMCs,"[2]; therapeutic setting, day 18 and 24, combined with α-PD-1",significantly higher
same,intratumoral infiltration of T cells compared with α-PD-1 IgG alone,CT26 tumor,significantly enhanced
same,anti-tumor efficacy compared with α-PD-1 alone,"CT26 cells [5]; prophylactic oral gavage from one week before tumor inoculation, combined with α-PD-1 i.p. 100 μg/dose",best efficacy
same,mice still surviving on day 50,"CT26 cells [5]; prophylactic oral gavage, inulin 120 mg/dosage, combined with α-PD-1",60%
same,combination efficacy with α-PD-1 against tumor growth after reducing the dosage by half,CT26 cells [3],did not compromise
same,animal survival,"CT26 cells [3]; therapeutic oral gavage from day 7, combined with α-PD-1 IgG",extended animal survival
same,anti-tumor efficacy,"CT26 cells [3]; therapeutic oral gavage from day 7, combined with α-PD-1 IgG, compared among candidate agents",strongest anti-tumor efficacy
pectin,maximum amount of ingredient that could be added to 23% w/w inulin gel without disrupting gel formation,[1],2 % (w/w)
potato starch,maximum amount of ingredient that could be added to 23% w/w inulin gel without disrupting gel formation,[1],5 % (w/w)
same,concentration at which potato starch was instantly gelatinized,[6],above 5 % w/v
